Patent US10570179B2, “Substituted urea depsipeptide analogs as activators of the CLPP endopeptidase” (priority 2016, dated 2020)
Converted amounts (≈) assume the structure as drawn. Read-outs that look alike come from different tables or passages of the source. Numbered stars: 1 amine (or outer) side, 2 acyl side, 3 side chain; on linkers, the order of the positions; unused ones are H or OH. Bridge positions count the residues as written; N and C are the ends. Square brackets hold non-standard residues; d marks the D form. Peptide text beside a SMILES is read from it. * marks the point of attachment. ξ: configuration not given here. Phe(3,5-Me2) = Cc1cc(C)cc(C[C@H](N)C(=O)O)c1; Phe(3-Me) = Cc1cccc(C[C@H](N)C(=O)O)c1; NH(4-Cl-2-F-phenyl) = Fc1cc(Cl)ccc1N*; Pro(4R-Me) = C[C@H]1CN[C@H](C(=O)O)C1; NH(4-Me-phenyl) = Cc1ccc(N*)cc1; ξNMeThr = CNC(C(=O)O)[C@@H](C)O; aThr = C[C@H](O)[C@H](N)C(=O)O; Pip = O=C(O)[C@@H]1CCCCN1; CO = O=C([*:1])[*:2]

What was measured:
S. pneumoniae = test: Minimal inhibitory concentration, microbroth dilution; assay type: cell-based; settings: Streptococcus pneumoniae; MIC; read-out: Minimal Inhibitory Concentrations (μM) S. pneumoniae
Outline: (§1)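 Compound was diluted twofold in the appropriate broth. Bacterial suspension (approx. 10^5 cfu/mL) was then added in equal volume, giving a maximum test concentration of 200 μM. After aerobic overnight incubation at 37 °C, wells were inspected visually for growth.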

B. subtilis = test: as above; assay type: cell-based; settings: Bacillus subtilis, read-out: Minimal Inhibitory Concentrations (μM) B. subtilis
Outline: as §1

S. pyogenes = test: as above; assay type: cell-based; settings: Streptococcus pyogenes, read-out: Minimal Inhibitory Concentrations (μM) S. pyogenes
Outline: as §1

[1] = Cytotoxicity assay (CellTiter-Glo cell viability); assay type: cell-based; settings: African green monkey
Method: Cytotoxicity was determined by determining the effect of compounds on cell viability. Vero (kidney epithelial cells; ATCC CCL-81) monolayers were trypsinized and 5000 cells/well were seeded (10-15% confluency) into white-wall, flat bottom 96 well microwell plates (Corning) using enriched Dulbecco's Modified Eagle's Medium (Hyclone: DMEM/High Glucose) containing 10% Fetal Bovine Serum (ATCC-30-2020). Plates were incubated overnight at 37° C. in the presence of 5% CO2. Drug-free media was then replaced with media containing serial dilutions of test compound or DMSO carrier. After an additional 72 hours of incubation, viability was indirectly measured using the CellTiter-Glo® Luminescent Cell Viability (Promega) assay. Assay plates were read at peak emission wavelength of 560 nm using a EnVision® Multilabel Plate Reader (Perkin Elmer) or PHERAstar FS Multilabel reader (BMG, Cary, N.C.). The concentration of test compounds that inhibited growth by 50% (IC50 value) was computed using nonlinear regression based fitting of inhibition curves using log [inhibitor] vs. response-variable slope (four parameters)—symmetrical equation, in GraphPad Prism version 6 [GraphPad Software, La Jolla, Calif. USA, www.graphpad.com]. For each experiment, compounds were tested in duplicate. IC50 values presented are the range of two biologically independent experiments.

Solubility determination = assay type: physicochemical; settings: for solubility kinetic at 10 min: 22 °C, aqueous buffer, kinetic from dmso stock
Outline: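 DMSO stock spiked into DPBS at 100 µM final, in triplicate, shaken 10 min, then centrifuged 20 min at 22 °C. Supernatant quantified by UPLC-UV and single-ion-recording MS against DMSO calibration standards (0.098–100 µM), using 1/x²-weighted linear regression.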

Plasma pharmacokinetics = assay type: in vivo, male BALB/c mice; settings: Route i.v.
[2] = Vero cells, 72 hours, read-out: Cytotoxicity IC50
[3] = solubility in DPBS, 100 μM test samples, LCMS, read-out: LCMS

SMILES	MIC (S. pneumoniae) [µM]	MIC (B. subtilis; MIC) [µM]	MIC (S. pyogenes; MIC) [µM]	IC50 at 72 h [1] [µM]	μsol (μM) (Solubility determination) [µM]	solubility kinetic at 10 min (Solubility determination) [µM]	MIC (B. subtilis) [µM]	MIC (S. pyogenes) [µM]	IC50 at 72 h [1, 2] [µM]	solubility kinetic at 10 min (Solubility determination; [3]) [µM]	μsol (μM) (Solubility determination; solubility) [µM]	μsol (μg/mL) (Solubility determination; solubility) [µg/mL]	C^0 (Plasma pharmacokinetics) [ng/mL]	AUC(0-inf) (Plasma pharmacokinetics; male, BALB/c, mouse, in vivo, iv, 10 mg/kg, read-out: AUCinf) [µg·h/mL]	AUC(0-t) (Plasma pharmacokinetics; male, BALB/c, mouse, in vivo, iv, 10 mg/kg, read-out: AUClast) [µg·h/mL]	clearance (Plasma pharmacokinetics; male, BALB/c, mouse, in vivo, iv, 10 mg/kg, read-out: CL) [L/h/kg]	half-life (Plasma pharmacokinetics; male, BALB/c, mouse, in vivo, iv, 10 mg/kg, read-out: T1/2 (converted)) [min]	Vd (Plasma pharmacokinetics; male, BALB/c, mouse, in vivo, iv, 10 mg/kg, read-out: Vss) [L/kg]
Cc1cccc(C[C@H](NC(=O)Nc2ccc(Cl)cc2F)C(=O)N[C@@H]2C(=O)N3CCC[C@H]3C(=O)N(C)C([C@@H](C)O)C(=O)N[C@@H](C)C(=O)N3C[C@H](C)C[C@H]3C(=O)O[C@H]2C)c1 (stereo partly drawn) [Compound 5] ({NH(4-Cl-2-F-phenyl)-CO}-[Phe(3-Me)][aThr]P[ξNMeThr]A[Pro(4R-Me)]; ester 2-C)	0.039 (≈ 0.0323 µg/mL)	0.156 (≈ 0.129 µg/mL)	0.078 (≈ 0.0646 µg/mL)	> 10	22.5 ± 1.9	17.4 ± 0.4 (≈ 14.4 µg/mL)												
Cc1cccc(C[C@H](NC(=O)Nc2ccc(Cl)cc2F)C(=O)N[C@H]2COC(=O)[C@@H]3C[C@@H](C)CN3C(=O)[C@H](C)NC(=O)[C@@H]3CCCCN3C(=O)[C@@H]3C[C@@H](O)CN3C2=O)c1 [Compound 10]	0.078 (≈ 0.0645 µg/mL)	0.313 (≈ 0.259 µg/mL)	0.156 (≈ 0.129 µg/mL)	> 50	26.0 ± 0.9	27.04 ± 0.25 (≈ 22.3 µg/mL)												
Cc1ccc(NC(=O)N[C@@H](Cc2cccc(C)c2)C(=O)N[C@@H]2C(=O)N3CCC[C@H]3C(=O)N3CCCC[C@H]3C(=O)N[C@@H](C)C(=O)N3C[C@H](C)C[C@H]3C(=O)O[C@H]2C)cc1 [Compound 1, (S)-3-(M-TOLYL)-2-(3-(P-TOLYL)UREIDO)-N-((2R,6S,8AS,14AS,20S,21S,23AS)-2,6,21-TRIMETHYL-5,8,14,19,23-PENTAOXOOCTADECAHYDRO-1H,5H,14H,19H-PYRIDO[2,1-I]DIPYRROLO[2,1-C:2′,1′-L][1]OXA[4,7,10,13]TETRAAZACYCLOHEXADECIN-20-YL)PROPANAMIDE] ({NH(4-Me-phenyl)-CO}-[Phe(3-Me)][aThr]P[Pip]A[Pro(4R-Me)]; ester 2-C)							0.313 (≈ 0.246 µg/mL)	0.313 (≈ 0.246 µg/mL)	1.59 ± 0.08	22.9 (≈ 18 µg/mL)	40.7	32.0	26862.75	7.62	7.59	1.31	29.4	0.74
Cc1ccc(NC(=O)N[C@@H](Cc2cc(C)cc(C)c2)C(=O)N[C@@H]2C(=O)N3CCC[C@H]3C(=O)N3CCCC[C@H]3C(=O)N[C@@H](C)C(=O)N3C[C@H](C)C[C@H]3C(=O)O[C@H]2C)cc1 [Compound 2, (S)-3-(3,5-DIMETHYLPHENYL)-2-(3-(P-TOLYL)UREIDO)-N-((2R,6S,8AS,14AS,20S,21S,23AS)-2,6,21-TRIMETHYL-5,8,14,19,23-PENTAOXOOCTADECAHYDRO-1H,5H,14H,19H-PYRIDO[2,1-I]DIPYRROLO[2,1-C:2′,1′-L][1]OXA[4,7,10,13]TETRAAZACYCLOHEXADECIN-20-YL)PROPANAMIDE] ({NH(4-Me-phenyl)-CO}-[Phe(3,5-Me2)][aThr]P[Pip]A[Pro(4R-Me)]; ester 2-C)							0.625 (≈ 0.5 µg/mL)	> 20	> 100	6.7 (≈ 5.36 µg/mL)	10.4	8.3						
